The target of data set [1] is Valyl-tRNA synthetase (ValRS) (Escherichia coli (strain K12), UniProt P07118). The data set can be described thus: Valyl-tRNA synthetase enzyme inhibition (AMP-Glo; single point % inhibition at 100 μM and IC50). The format is biochemical. From the text:
(§1) Study 1—Enzyme Inhibition
The aminoacylation reaction catalyzed by aminoacyl-tRNA synthetases (aaRS) takes place in two steps. In the first step, aaRS activates its cognate amino acid with ATP; and in the second step the activated amino acid is loaded to its corresponding tRNA. This reaction can be summarized as follows: aaRS+aa+ATP=aaRS-aa-AMP+PPi aaRS-aa-AMP+tRNA=aa-tRNA+AMP+aaRS
(§2) wherein: aaRS, aminoacyl-tRNA synthetase; aa, amino acid; aaRS-aa-AMP, enzyme-bound to aminoacyl-adenylate; AMP, adenosine monophosphate; aa-tRNA, aminoacyl-tRNA, PPi, inorganic pyrophosphate.
a. Single Point Percentage Inhibition
(§3) The activity of the pathogenic aaRSs was monitored by measuring AMP production using the commercial kit AMP-Glo (Promega, Madison, USA).
Ligand stock solutions were prepared in 100% DMSO at 10 mM concentration. An assay buffer consisting of 100 mM Tris HCl pH 7.6, 40 mM MgCl, 20 mM KCl and 150 mM NaCl was prepared in dH2O. An enzyme solution containing 42.33 μM ValRS was prepared in assay buffer to provide 30 nM final assay concentration and 75 nM reservoir concentration for a 1:2.5 dilution in the assay. A substrate solution was also prepared in assay buffer with 50 mM L-valine, 10 mM ATP and 100 mg/mL tRNA. A final assay concentration of 500 μM L-valine, 2.5 μM ATP and 0.5 mg/mL tRNA and reservoir concentration of 833.33 μM L-valine, […] and 0.83 mg/mL tRNA was used for a 1:1.66 dilution in assay.
(§4) Enzyme percentage inhibition values were recorded in triplicate at a single point concentration of 100 μM.
Using the same enzymatic assay in a 384-well plate format, ten point concentration response curves were generated for each compound using a top concentration of 100 μM. The known inhibitor, ValAMS was used as a positive control for the ValRS assay. 100% DMSO was used as a negative control. The IC50 was calculated based on non-linear regression analysis.

A short description of data set [2]: Human cell viability / cytotoxicity (CellTiter-Glo, 24 hours). Format: cell-based. The conditions noted are these: human, HepG2 cells (ATCC HB-8065); HepG2 ATCC HB-8065, 24 hours; read-out: Cytotoxicity in HepG2 ATCC HB-8065 Cell Line, IC50. Summed up:
(§5)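 HepG2 cells (15,000/well, MEM with 1% NEAA and 1% pyruvate) were grown 2 days, then exposed to compounds in duplicate for 24 h at 1.28% DMSO. Viability was read as ATP by CellTiter-Glo luminescence relative to DMSO-only wells. IC50 is in μg/mL.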
(In general: ATP-based viability assays read luminescence as a measure of living cells.)

For data set [3], the target named is Isoleucyl-tRNA synthetase (IleRS) (Escherichia coli (strain K12), UniProt P00956). Description: Isoleucyl-tRNA synthetase enzyme inhibition (AMP-Glo; single point % inhibition at 100 μM and IC50). The format is biochemical.
Excerpt: as §1
The aminoacylation reaction catalyzed by aminoacyl-tRNA synthetases (aaRS) takes place in two steps. In the first step, aaRS activates its cognate amino acid with ATP; and in the second step the activated amino acid is loaded to its corresponding tRNA. This reaction can be summarized as follows: aaRS+aa+ATP=aaRS-aa-AMP+PPi aaRS-aa-AMP+tRNA=aa-tRNA+AMP+aaRS […]
as §2
Isoleucyl-tRNA Synthetase a. Single Point Percentage Inhibition
as §3
Ligand stock solutions were prepared in 100% DMSO at 10 mM concentration. An assay buffer consisting of 100 mM Tris HCl pH 7.6, 40 mM MgCl, 20 mM KCl and 150 mM NaCl was prepared in dH2O. An enzyme solution containing 51.77 μM IleRS was prepared in assay buffer to provide 30 nM final assay concentration and 75 nM reservoir concentration for a 1:2.5 dilution in the assay. A substrate solution was also prepared in assay buffer with 50 mM L-isoleucine, 10 mM ATP and 100 mg/mL tRNA. A final assay concentration of 500 μM L-isoleucine, 5 μM ATP and 1 mg/mL tRNA and reservoir concentration of 833.33 μM L-isoleucine, 8.33 μM ATP and 1.67 mg/mL tRNA was used for a 1:1.66 dilution in assay.
as §4
Using the same enzymatic assay in a 384-well plate format, ten point concentration response curves were generated for each compound using a top concentration of 100 μM. The known inhibitor, IleAMS was used as a positive control for the IleRS assay. 100% DMSO was used as a negative control. The IC50 was calculated based on non-linear regression analysis.

A further data set concerns HepG2 ATCC HB-8065 cells. Description: Human cell viability / cytotoxicity (CellTiter-Glo, 24 hours). Format: cell-based. The note with it: HepG2 ATCC HB-8065, 24 hours. The method, boiled down: as §5
Data set [4] has as its target Leucyl-tRNA synthetase (LeuRS) (Escherichia coli (strain K12), UniProt P07813). Description: Leucyl-tRNA synthetase enzyme inhibition (AMP-Glo; single point % inhibition at 100 μM and IC50). The format is biochemical. The conditions noted are these: E. coli LeuRS; read-out: Enzyme Inhibition - IC50, E. coli LeuRS.

These results are taken from patent US12247004B2, “2-amino-N-(amino-oxo-aryl-lambda6-sulfanylidene)acetamide compounds and their therapeutic use” (Oxford Drug Design Limited, priority 2019, dated 2025).

Where two headings read alike, the source gives them in different places. A value given as a limit tells only on which side of the number the result lay.

Chain of Valyl-tRNA synthetase (ValRS) (P07118 whole entry): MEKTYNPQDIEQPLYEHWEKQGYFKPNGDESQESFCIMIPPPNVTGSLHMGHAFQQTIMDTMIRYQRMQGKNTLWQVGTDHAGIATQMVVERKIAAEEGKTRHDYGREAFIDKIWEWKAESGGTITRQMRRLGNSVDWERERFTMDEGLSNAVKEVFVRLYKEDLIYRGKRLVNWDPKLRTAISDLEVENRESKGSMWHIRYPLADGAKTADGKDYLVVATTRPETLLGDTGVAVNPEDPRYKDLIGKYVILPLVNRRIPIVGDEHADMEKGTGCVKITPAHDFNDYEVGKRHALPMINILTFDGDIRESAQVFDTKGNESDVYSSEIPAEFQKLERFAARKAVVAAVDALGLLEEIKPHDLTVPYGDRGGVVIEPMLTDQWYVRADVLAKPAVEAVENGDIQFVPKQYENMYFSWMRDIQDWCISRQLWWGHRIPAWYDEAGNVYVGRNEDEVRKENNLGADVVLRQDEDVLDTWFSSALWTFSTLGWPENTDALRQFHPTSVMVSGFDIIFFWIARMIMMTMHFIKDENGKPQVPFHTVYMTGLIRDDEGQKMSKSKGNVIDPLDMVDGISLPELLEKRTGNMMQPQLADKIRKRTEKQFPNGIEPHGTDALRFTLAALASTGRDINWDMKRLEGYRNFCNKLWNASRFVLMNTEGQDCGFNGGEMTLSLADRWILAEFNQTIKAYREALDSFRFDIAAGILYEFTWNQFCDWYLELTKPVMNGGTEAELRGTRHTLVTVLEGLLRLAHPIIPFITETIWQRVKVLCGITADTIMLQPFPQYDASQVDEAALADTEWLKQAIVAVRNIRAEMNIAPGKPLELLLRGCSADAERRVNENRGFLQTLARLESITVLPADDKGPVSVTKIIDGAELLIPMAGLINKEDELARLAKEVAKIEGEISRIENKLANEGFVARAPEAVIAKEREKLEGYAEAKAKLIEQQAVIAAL
Chain of Isoleucyl-tRNA synthetase (IleRS) (P00956 whole entry, looked up): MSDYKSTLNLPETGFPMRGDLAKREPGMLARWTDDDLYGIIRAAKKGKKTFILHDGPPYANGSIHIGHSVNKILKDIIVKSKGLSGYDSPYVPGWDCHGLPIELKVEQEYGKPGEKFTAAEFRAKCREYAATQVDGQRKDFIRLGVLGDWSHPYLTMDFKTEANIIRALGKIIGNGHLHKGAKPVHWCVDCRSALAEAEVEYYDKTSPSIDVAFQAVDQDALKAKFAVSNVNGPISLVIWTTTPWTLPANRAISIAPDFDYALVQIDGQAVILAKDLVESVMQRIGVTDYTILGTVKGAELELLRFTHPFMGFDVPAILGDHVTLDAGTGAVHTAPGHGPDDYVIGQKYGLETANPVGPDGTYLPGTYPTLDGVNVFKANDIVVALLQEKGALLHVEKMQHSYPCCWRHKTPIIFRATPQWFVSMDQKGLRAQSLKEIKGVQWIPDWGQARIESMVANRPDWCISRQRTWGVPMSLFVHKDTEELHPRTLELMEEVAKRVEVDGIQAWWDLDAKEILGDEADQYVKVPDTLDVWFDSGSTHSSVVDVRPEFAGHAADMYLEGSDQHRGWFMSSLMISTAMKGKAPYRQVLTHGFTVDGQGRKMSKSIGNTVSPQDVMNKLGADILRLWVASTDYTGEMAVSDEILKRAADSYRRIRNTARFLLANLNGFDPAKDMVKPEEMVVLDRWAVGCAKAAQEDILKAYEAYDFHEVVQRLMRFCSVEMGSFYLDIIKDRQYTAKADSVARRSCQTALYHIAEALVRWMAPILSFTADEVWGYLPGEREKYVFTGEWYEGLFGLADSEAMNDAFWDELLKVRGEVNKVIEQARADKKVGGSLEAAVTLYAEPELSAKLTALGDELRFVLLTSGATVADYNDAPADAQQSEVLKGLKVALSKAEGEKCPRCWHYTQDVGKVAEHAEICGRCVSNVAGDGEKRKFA
Chain of Leucyl-tRNA synthetase (LeuRS) (P07813 whole entry, looked up): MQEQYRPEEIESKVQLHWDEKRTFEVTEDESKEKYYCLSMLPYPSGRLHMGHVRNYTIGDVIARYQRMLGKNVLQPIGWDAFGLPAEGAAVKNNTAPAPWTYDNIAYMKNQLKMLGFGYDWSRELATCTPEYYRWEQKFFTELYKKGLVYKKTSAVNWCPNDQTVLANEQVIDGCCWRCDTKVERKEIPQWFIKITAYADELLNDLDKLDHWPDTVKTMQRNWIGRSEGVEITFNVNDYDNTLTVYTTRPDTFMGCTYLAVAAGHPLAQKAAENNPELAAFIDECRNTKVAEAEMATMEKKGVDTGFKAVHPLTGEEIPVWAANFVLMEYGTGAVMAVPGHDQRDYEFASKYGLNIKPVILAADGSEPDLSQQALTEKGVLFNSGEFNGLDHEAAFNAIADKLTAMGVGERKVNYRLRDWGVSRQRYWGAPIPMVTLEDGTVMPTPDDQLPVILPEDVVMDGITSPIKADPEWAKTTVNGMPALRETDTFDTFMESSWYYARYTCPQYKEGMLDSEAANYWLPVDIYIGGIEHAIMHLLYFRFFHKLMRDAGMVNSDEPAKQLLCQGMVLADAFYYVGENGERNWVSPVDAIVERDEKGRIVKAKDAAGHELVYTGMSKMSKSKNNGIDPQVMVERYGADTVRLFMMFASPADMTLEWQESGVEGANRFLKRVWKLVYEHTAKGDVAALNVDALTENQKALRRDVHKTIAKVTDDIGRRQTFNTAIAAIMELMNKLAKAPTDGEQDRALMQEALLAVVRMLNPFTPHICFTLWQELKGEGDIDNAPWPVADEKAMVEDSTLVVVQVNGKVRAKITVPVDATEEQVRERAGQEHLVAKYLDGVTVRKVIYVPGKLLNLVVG

With `CC(C)[C@H](N)C(=O)N=[S@](N)(=O)c1cccc(OC(F)F)c1` [ANASIA-117-1], the half-inhibitory concentration (IC50) (usually the midpoint of a concentration-inhibition curve) in data set [1] (E. coli ValRS, read-out: Enzyme Inhibition - IC50, E. coli ValRS) worked out at 47.9 µM.

Take `CC(C)[C@H](N)C(=O)N=S(N)(=O)c1cccc2ccccc12` (some centres unmarked) [ANASIA-025]: in data set [2], the IC50 at 24 h was greater than 64 µg/mL. Moreover, the IC50 is 21.9 µM in data set [1] and greater than 100 µM in data set [3] (E. coli IleRS, read-out: Enzyme Inhibition - IC50, E. coli IleRS).

`CC(C)[C@H](N)C(=O)N=S(N)(=O)c1cc2sccc2s1` (some centres unmarked) [ANASIA-118]: the results for the IC50 in data set [1] and in data set [3] were 38.6 µM and 52.9 µM, respectively.

Consider `CC(C)C[C@H](N)C(=O)N=[S@@](N)(=O)c1cccs1.Cl` [ANASIA-007-2, (S)-2-amino-N—((R)-amino(oxo) (thiophen-2-yl)-λ6-sulfanylidene)-4-methyl pentanamide hydrochloride], for which the “Cytotoxicity in HepG2 ATCC HB-8065 Cell Line, IC50” value with HepG2 ATCC HB-8065 cells is greater than 64.0 µg/mL. For the same compound, in data set [4], the IC50 is 4.9 µM.
